Reference: ChEMBL document CHEMBL1131746, “Synthesis of taxoids 5. Synthesis and evaluation of novel water-soluble prodrugs of a 3'-desphenyl-3'-cyclopropyl analogue of docetaxel” (Bioorg Med Chem Lett, 1999)
≈ marks a conversion by molar mass, not a printed value.

Key:
[1] = Solubility in saline; format: physicochemical; settings: read-out: S
Mus musculus [2] = assay: Antitumor activity was measured as change in body weight on day 10 in mice implanted with B16 melanoma cells at dose of 12.5 mg/kg/day; format: functional
Mus musculus [3] = assay: Compound was evaluated for antitumor activity by iv administration against B16 melanoma implanted sc in mice at dose 12.5 mg/kg/day; format: functional
[4] = Inhibitory concentration required against Colon320 human colon cancer cell line was determined; format: functional, cell-based; settings: cancer cell lines
[5] = Inhibitory concentration required against MKN1 human stomach cancer cell line was determined; format: functional, cell-based; settings: cancer cell lines
Mus musculus [6] = assay: Antitumor activity was measured as change in body weight on day 10 in mice implanted with B16 melanoma cells at dose of 20 mg/kg/day; format: functional
Mus musculus [7] = assay: Compound was evaluated for antitumor activity by iv administration against B16 melanoma implanted sc in mice at dose 20 mg/kg/day; format: functional
OVCAR-3 = assay: Inhibitory concentration required against OVCAR-3 human ovarian cancer cell line was determined; format: functional, cell-based
SK-BR-3 = assay: Inhibitory concentration required against SK-BR-3 human breast cancer cell line was determined; format: functional, cell-based
SK-LU-1 = assay: Inhibitory concentration required against SK-LU-1 human lung cancer cell line was determined; format: functional, cell-based
WiDr = assay: Inhibitory concentration required against WiDr human colon cancer cell line was determined; format: functional, cell-based
Mus musculus [8] = assay: Antitumor activity was measured as change in body weight on day 10 in mice implanted with B16 melanoma cells at a dose of 6.3 mg/kg/day; format: functional
Mus musculus [9] = assay: Compound was evaluated for antitumor activity by iv administration against B16 melanoma implanted sc in mice at a dose of 6.3 mg/kg/day; format: functional
[10] = Ratio of IC50 of docetaxel / IC50 against Colon 320 cell line was determined; format: functional, COLO 320
[11] = Ratio of IC50 of docetaxel / IC50 against MKN1 cell line was determined; format: functional, MKN-1
[12] = Ratio of IC50 of docetaxel / IC50 against OVCAR-3 cell line was determined; format: functional
[13] = Ratio of IC50 of docetaxel / IC50 against SK-BR-3 cell line was determined; format: functional
[14] = Ratio of IC50 of docetaxel / IC50 against SK-LU-1 cell line was determined; format: functional
[15] = Ratio of IC50 of docetaxel / IC50 against WiDr cell line was determined; format: functional

Structure (SMILES): CCOC(=O)[C@@H](N)CC(=O)OCOC(=O)O[C@@H](C(=O)O[C@H]1C[C@@]2(O)[C@@H](OC(=O)c3ccccc3)[C@@H]3[C@]4(OC(C)=O)CO[C@@H]4C[C@H](O)[C@@]3(C)C(=O)[C@H](O)C(=C1C)C2(C)C)[C@@H](NC(=O)OC(C)(C)C)C1CC1
- solubility [1]: 10000 µg/mL (≈ 10.1 mM)
- Body weight change (Mus musculus [2]): -2.9%
- ILS at 12.5 mg/kg/day (Mus musculus [3]): 213%

Structure (SMILES): CC(=O)O[C@@]12CO[C@@H]1C[C@H](O)[C@@]1(C)C(=O)[C@H](O)C3=C(C)[C@@H](OC(=O)[C@H](OC(=O)OCOC(=O)C[C@H](N)C(N)=O)[C@@H](NC(=O)OC(C)(C)C)C4CC4)C[C@@](O)([C@@H](OC(=O)c4ccccc4)[C@H]21)C3(C)C
- solubility [1]: 5000 µg/mL (≈ 5.21 mM)
- Body weight change (Mus musculus [2]): -3.2%
- ILS at 12.5 mg/kg/day (Mus musculus [3]): 227%

Structure (SMILES): CC(=O)O[C@@]12CO[C@@H]1C[C@H](O)[C@@]1(C)C(=O)[C@H](O)C3=C(C)[C@@H](OC(=O)[C@H](O)[C@@H](NC(=O)OC(C)(C)C)c4ccccc4)C[C@@](O)([C@@H](OC(=O)c4ccccc4)[C@H]21)C3(C)C.O.O.O [DOCETAXEL]
- IC50 [4]: 4.8 nM
- IC50 [5]: 1.7 nM
- Body weight change (Mus musculus [6]): -13%
- ILS at 20 mg/kg/day (Mus musculus [7]): 149%
- IC50 (OVCAR-3): 1.2 nM
- IC50 (SK-BR-3): 4.7 nM
- IC50 (SK-LU-1): 1.8 nM
- IC50 (WiDr): 0.43 nM

Structure (SMILES): CC(=O)O[C@@]12CO[C@@H]1C[C@H](O)[C@@]1(C)C(=O)[C@H](O)C3=C(C)[C@@H](OC(=O)[C@H](OC(=O)OCOC(=O)C[C@@H](N)C(N)=O)[C@@H](NC(=O)OC(C)(C)C)C4CC4)C[C@@](O)([C@@H](OC(=O)c4ccccc4)[C@H]21)C3(C)C
- solubility [1]: 50000 µg/mL (≈ 52.1 mM)
- Body weight change (Mus musculus [2]): -11.1%
- ILS at 12.5 mg/kg/day (Mus musculus [3]): 127%

Structure (SMILES): CNC(=O)[C@@H](N)CC(=O)OCOC(=O)O[C@@H](C(=O)O[C@H]1C[C@@]2(O)[C@@H](OC(=O)c3ccccc3)[C@@H]3[C@]4(OC(C)=O)CO[C@@H]4C[C@H](O)[C@@]3(C)C(=O)[C@H](O)C(=C1C)C2(C)C)[C@@H](NC(=O)OC(C)(C)C)C1CC1
- solubility [1]: 10000 µg/mL (≈ 10.3 mM)
- Body weight change (Mus musculus [2]): -0.5%
- ILS at 12.5 mg/kg/day (Mus musculus [3]): 185%

Structure (SMILES): CC(=O)O[C@@]12CO[C@@H]1C[C@H](O)[C@@]1(C)C(=O)[C@H](O)C3=C(C)[C@@H](OC(=O)[C@H](O)[C@@H](NC(=O)OC(C)(C)C)C4CC4)C[C@@](O)([C@@H](OC(=O)c4ccccc4)[C@H]21)C3(C)C
- IC50 [4]: 0.21 nM
- IC50 [5]: 1.2 nM
- Body weight change (Mus musculus [8]): -7.5%
- ILS at 6.3 mg/kg/day (Mus musculus [9]): 187%
- IC50 (OVCAR-3): 0.52 nM
- IC50 (SK-BR-3): 1.1 nM
- IC50 (SK-LU-1): 1 nM
- IC50 (WiDr): 0.027 nM
- Ratio [10]: 23
- Ratio [11]: 1.4
- Ratio [12]: 2.3
- Ratio [13]: 4.3
- Ratio [14]: 1.8
- Ratio [15]: 16

Structure (SMILES): CC(=O)O[C@@]12CO[C@@H]1C[C@H](O)[C@@]1(C)C(=O)[C@H](O)C3=C(C)[C@@H](OC(=O)[C@H](OC(=O)OCOC(=O)C[C@H](N)C(=O)O)[C@@H](NC(=O)OC(C)(C)C)C4CC4)C[C@@](O)([C@@H](OC(=O)c4ccccc4)[C@H]21)C3(C)C
- solubility [1]: 1000 µg/mL (≈ 1.04 mM)
- Body weight change (Mus musculus [2]): 3.3%
- ILS at 12.5 mg/kg/day (Mus musculus [3]): 212%
